Experimental data: publication PMC6562427, “A New Tyrosinase Inhibitor from the Red Alga Symphyocladia latiuscula (Harvey) Yamada (Rhodomelaceae)” (Marine Drugs, 2019)
Like-named read-outs stand apart in the source and are kept apart here.

Assays:
[1] = test system: tyrosinase protein expression in α-MSH-stimulated B16F10 cells; test: Tyrosinase protein levels via western blotting; type: cell-based, mouse
Experimental: The cell suspensions were centrifuged at 16,000 × g for 5 min, and the cell pellets were lysed in a lysis buffer and incubated on ice for 10 min. The cell lysates were centrifuged at 16,000 × g for 10 min, and the supernatant (total protein) was normalized using a Bradford protein assay kit. Aliquots of protein were resolved by sodium dodecyl sulfate-polyacrylamide gel electrophoresis and transferred onto a nitrocellulose membrane. The membrane was blocked with 10% nonfat milk (w/v) in tris-buffered saline with tween (TBST) (0.1 M Tris-HCl, pH 7.5, 1.5 M NaCl, 1% Tween20) for 2 h and incubated for approximately 24 h with TYR primary antibody. The immunoblots were then incubated with appropriate secondary antibodies for 2 h and detected using an enhanced chemiluminescence detection kit.

[2] = test system: B16F10 melanoma cells; test: Melanin content assay in α-MSH-stimulated cells; type: cell-based, mouse; details: for melanin content: α-MSH alone 151.72%; for effect on melanin content: 6.25, 12.5 and 25 µM
Experimental: Intracellular melanin content was determined according to a previously reported procedure with minor modifications. Briefly, B16F10 cells were seeded in a 24-well plate at 2 × 10,000 cells/well and incubated for 24 h in DMEM containing 10% FBS. Cells were pretreated with 6.25, 12.5, and 25 μM test compounds for 1 h and stimulated with 5 μM α-MSH for 48 h. […] The cells were washed with PBS and dissolved in 1 N NaOH containing 10% DMSO by boiling at 80 °C for 30 min. The cell lysates were centrifuged at 14,000 rpm for 20 min, and absorbance of the supernatant was measured at 405 nm. Melanin content was determined by normalizing the absorbance with total protein content.

[3] = biological target: T1, tyrosinase in α-MSH-induced B16F10 melanoma cells (Mus musculus, UniProt P11344); test: Cellular tyrosinase assay (L-DOPA oxidation); type: cell-based; details: 5 µM α-MSH 48 h; for intracellular tyrosinase level: α-MSH alone 215.73%; for effect on intracellular tyrosinase activity: 6.25, 12.5 and 25 µM
T1 construct: the supernatant was used as cellular tyrosinase solution; endogenous in cells; host or cells: B16F10 melanoma cells, α-MSH stimulated
T1 sequence (P11344 19-533): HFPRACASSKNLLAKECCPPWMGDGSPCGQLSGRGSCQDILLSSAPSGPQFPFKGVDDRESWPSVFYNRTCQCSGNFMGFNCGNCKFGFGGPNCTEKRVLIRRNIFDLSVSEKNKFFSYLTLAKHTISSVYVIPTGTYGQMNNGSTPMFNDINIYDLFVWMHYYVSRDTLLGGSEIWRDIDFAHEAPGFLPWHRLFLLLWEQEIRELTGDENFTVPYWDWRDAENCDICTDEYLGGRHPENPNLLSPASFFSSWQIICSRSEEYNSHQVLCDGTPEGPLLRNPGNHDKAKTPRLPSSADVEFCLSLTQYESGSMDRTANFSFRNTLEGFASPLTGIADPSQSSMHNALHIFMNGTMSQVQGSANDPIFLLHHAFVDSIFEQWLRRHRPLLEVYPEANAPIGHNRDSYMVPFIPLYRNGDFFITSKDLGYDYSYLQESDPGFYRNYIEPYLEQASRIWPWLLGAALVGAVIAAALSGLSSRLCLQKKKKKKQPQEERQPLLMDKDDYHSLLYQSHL
Experimental: Intracellular tyrosinase inhibitory activity was evaluated by measuring the rate of oxidation of L-DOPA [57]. […] The cells were washed with PBS and lysed with a radio immunoprecipitation assay buffer. The cell lysates were kept in a deep freezer (−80 °C) for 1 h. After defrosting the cell lysates, the cellular extracts were purified by centrifugation at 14,000 rpm for 20 min at 4 °C, and the supernatant was used as cellular tyrosinase solution. A total of 80 µL of supernatant and 20 µL of L-DOPA (2 mg/mL) were added to a 96-well plate and incubated at 37 °C for 45 min. Dopachrome formation was then measured spectrophotometrically at 450 nm using a microplate spectrophotometer (Molecular Devices). Intracellular tyrosinase activity was calculated as the percentage of control.

[4] = biological target: T2, mushroom tyrosinase (Agaricus bisporus, UniProt C7FF04); test: Mushroom tyrosinase inhibitory assay (spectrophotometric); type: biochemical; details: mean ± SD, n = 3
T2 construct: purchased Sigma Aldrich
T2 sequence (C7FF04 1-392): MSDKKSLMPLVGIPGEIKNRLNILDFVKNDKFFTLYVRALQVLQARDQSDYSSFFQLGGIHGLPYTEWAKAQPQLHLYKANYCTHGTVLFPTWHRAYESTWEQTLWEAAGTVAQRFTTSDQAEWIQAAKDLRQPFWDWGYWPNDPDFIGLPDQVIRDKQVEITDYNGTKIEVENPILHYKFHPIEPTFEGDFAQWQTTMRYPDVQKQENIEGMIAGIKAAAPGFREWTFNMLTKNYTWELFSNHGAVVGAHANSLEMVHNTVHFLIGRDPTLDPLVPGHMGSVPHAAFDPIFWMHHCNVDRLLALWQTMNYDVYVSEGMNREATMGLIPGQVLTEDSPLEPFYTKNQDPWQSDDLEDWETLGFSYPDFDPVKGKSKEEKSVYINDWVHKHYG
Experimental: The inhibitory activity of mushroom tyrosinase was carried out using a spectrophotometric method described in [27] with slight modifications. […] Then, 20 µL of tyrosinase was added and incubated at room temperature for between 10 and 30 minutes. Absorbance was measured at 490 nm after incubation.

[5] = Cell viability, MTT assay; type: cell-based; details: mouse
Experimental: B16F10 mouse melanoma cells obtained from American Type Culture Collection (Manassas, VA, USA) were maintained in 10% FBS in high-glucose DMEM containing 100 U/mL penicillin and 100 μg/mL streptomycin at 37 °C in a humidified atmosphere with 5% CO2. Cytotoxicity was evaluated using a 3-(4,5-dimethylthiazol-2-yl)-2,5-diphenyltetrazolium bromide (MTT) assay. After 95% of confluence, B16F10 cells were seeded in a 96-well plate at 10,000 cells/well and incubated for 24 h in DMEM supplemented with 10% FBS. The cells were then fed fresh serum-free DMEM containing different concentrations (25 to 100 μM) of the test compounds and incubated for 48 h. After that, the cells were incubated with 100 μL of MTT at a concentration of […] in phosphate-buffered saline (PBS) for 2 h. Absorbance was measured at 490 nm by a microplate reader (Promega Corporation Instrument, USA) after 2 h of incubation. The viability of cells at 48 h upon co-treatment with α-MSH was evaluated by treating cells with 5 μM α-MSH 1 h after the treatment with test compounds.

[6] = biological target: T2, mushroom tyrosinase; test: Kinetic study against mushroom tyrosinase (Lineweaver-Burk and secondary plots); type: biochemical
Experimental: The inhibition type was determined using a Lineweaver–Burk plot. The apparent slope (Kmapp/Vmaxapp) and intercept (1/Vmaxapp) versus different inhibitor concentrations was used to determine the inhibition constant (Ki). Different kinetic parameters were obtained for different concentrations of the substrate (0.5, 0.75, and 1 mM) and inhibitors (compound 1—0.0, 4.0, 6.6, and 9.3 µM; compound 3—0, 2.5, 2.6, and 2.7 µM). Sigmaplot version 12.0 (SPSS Inc., Chicago, IL, USA) was employed to generate the plots.

[7] = IC50 L-Tyrosine, substrate L-tyrosine

| Structure (SMILES) | tyrosinase protein expression ([1]; arbutin pre-treatment (positive control)) | melanin content ([2]; 500 µM, 5 µM α-MSH 48 h) | intracellular tyrosinase level ([3]; 500 µM) | tyrosinase protein expression ([1]; 6.25, 12.5 and 25 μM, 48 h) | effect on melanin content ([2]; 5 µM α-MSH 48 h) | IC50 ([4]; IC50 L-DOPA, substrate L-DOPA) | IC50 [4, 7] | effect on intracellular tyrosinase activity [3] | viability at 48 h, 100 µM ([5]; 100 µM, 48 h, MTT, read-out: viable cells) | melanin content ([2]; 25 µM, pretreated 1 h then 5 µM α-MSH 48 h) | intracellular tyrosinase level ([3]; 25 µM) | viability at 48 h, 100 µM [5] | Ki [6] | Inhibition Type ([6]; substrate L-tyrosine, from Lineweaver-Burk plots) |
| --- | --- | --- | --- | --- | --- | --- | --- | --- | --- | --- | --- | --- | --- | --- |
| OC[C@H]1O[C@@H](Oc2ccc(O)cc2)[C@H](O)[C@@H](O)[C@@H]1O [Arbutin, reference compound] | significantly reduced the expression levels | 124.06% | 130.75% |  |  |  |  |  |  |  |  |  |  |  |
| COCc1c(Br)c(O)c(O)c(Br)c1Br [Compound 2, 2,3,6-tribromo-4,5-dihydroxybenzyl methyl ether] |  |  |  | did not reduce expression | no significant reduction | > 300 µM | 113.9 ± 0.75 µM | did not show a significant reduction | ~100% |  |  |  |  |  |
| Oc1c(O)c(Br)c(COCc2c(Br)c(O)c(O)c(Br)c2Br)c(Br)c1Br [Compound 3, bis-(2,3,6-tribromo-4,5-dihydroxybenzylmethyl ether)] |  |  |  | inhibited α-MSH-induced accumulation of tyrosinase proteins in a concentration-dependent manner | reduced the melanin content in a dose-dependent manner | 111 ± 4.95 µM | 2.92 ± 0.04 µM | decreased in a dose-dependent manner |  | 98.68% | 94.81% | 86.9% | 1.98 µM | competitive-type inhibition |
